Patent US20260272801A1, “BIOCATALYTIC SYNTHESIS OF UNNATURAL MYCOSPORINE-LIKE AMINO ACIDS” (University of Florida Research Foundation, Incorporated, priority 2022, published 2026)
“Also recorded” adds a separate entry of the source.

Experiments:
[1] = tested on: MysD; assay: In vitro MysD reaction with amino acid substrates (LC-HRMS detection of MAA products); type: biochemical, Nostoc linckia NIES-25; settings: 5 mM amino acid, 50 uM mycosporine-glycine, 5 mM ATP, 0.5 uM MysD, pH 8.0, room temperature, 4 hours
Procedure: The reaction solution contained 50 mM HEPES, pH 8.0, 10 mM MgCl2, 50 uM mycosporine-glycine (MG), 5 mM amino acid substrates, and 5 mM ATP. The reactions were initiated by adding 0.5 uM MysD and then carried out at room temperature for 4 hours. The reactions were then terminated and centrifuged.
In Vitro MysD Reactions. MG was purified from extracts of E. coli expressing MysAB2C by HPLC and used as the substrate for the MysD reactions. The quality of MG was calculated based on its extinction coefficient (28,100 M^−1cm^−1). The MysD reactions included MG (50 μM), Mg^2+ (10 mM), unnatural amino acid substrates (5 mM), and ATP (5 mM) in 50 mM HEPES, pH 8.0. The reactions were initiated by adding MysD (0.5 μM) and then incubated at room temperature for 4 hours. All reactions were quenched by heat inactivation at 95° C. for 10 min. After centrifugation at 20,000×g for 15 min, the clear supernatants were collected for LC-HRMS analysis.
The reactions were terminated and then analyzed in the HPLC and/or LC-MS analysis.
HPLC and LC-MS Analysis. Samples were analyzed on a Shimadzu Prominence UHPLC system (Kyoto, Japan) coupled with a PDA detector. Unless stated elsewhere, the following HPLC procedure was performed. The compounds were separated on a Phenomenex Luna C8 column (4.6×250 mm, 5 μm) using the following HPLC program: 2% B for 15 min, 2-90% B gradient in 2 min, 90% B in 2 min, 90-2% in 2 min, and re-equilibration in 2% B for 6 min. The A phase was water with 0.1% formic acid and the B phase was methanol. The flow rate was set at 0.5 mL/min. LC-HRMS and HRMS/MS experiments were conducted on a Thermo Scientific Q Exactive Focus mass spectrometer with a Dionex Ultimate RSLC 3000 uHPLC system, equipped with the H-ESI II probe on an Ion Max API Source. Methanol (B)/water (A) containing 0.1% formic acid were used as mobile phases. The eluents from the first 3 min were diverted to waste by a diverting valve. MS1 signals were acquired under the Full MS positive ion mode, covering a mass range of m/z 150-2000, with resolution at 35 000 and AGC target at 1×10^6.

[2] = cited from earlier work

SMILES | use as amino acid substrate by MysD to produce MAA products [1] | further results
NC[C@@H](N)C(=O)O [(R)-2,3-diaminopropionic acid] | not able to take | 
NC[C@H](N)C(=O)O [(S)-2,3-diaminopropionic acid] | could be used by MysD | 
C=C[C@H](N)C(=O)O [(S)-2-aminobut-3-enoic acid] | could be used by MysD | 
C[C@@H](O)[C@H](N)C(=O)O [L-threonine] | could be used by MysD; also recorded: best substrate | 
COC1=C(NCC(=O)O)C[C@@](O)(CO)CC1=O [MG, mycosporine-glycine] |  | extinction coefficient ([2]; used to calculate the quantity of MG): 28,100 M^−1cm^−1
COC1=C(NCC(=O)O)C[C@@](O)(CO)CC1=N[C@H](C(=O)O)[C@@H](C)O [porphyra-334] |  | maximal absorption wavelength ([2]; natural MAA given as comparison value): 334 nm
